Like-named read-outs stand apart in the source and are kept apart here.
Experiments:
[1] = tested on: southern root-knot nematode (Meloidogyne incognita); test: Meloidogyne incognita test (MELGIN); type: in vivo; conditions: lettuce in sand; application rate 20 ppm; after 14 days
Procedure: Meloidogvne incognita test (MELGIN)
Solvent: 125.0 parts by weight of acetone
To produce a suitable preparation of active compound, 1 part by weight of active compound is mixed with the stated amount of solvent and the concentrate is diluted with water to the desired concentration.
Vessels are filled with sand, active compound solution, an egg/larvae suspension of the southern root-knot nematode (Meloidogyne incognita) and lettuce seeds. The lettuce seeds germinate and the plants develop. The galls develop on the roots.
After 14 days, the nematicidal efficacy in % is determined by the formation of galls. 100% means that no galls were found; 0% means that the number of galls on the treated plants corresponds to the untreated control.

[2] = tested on: larvae of the mustard beetle (Phaedon cochleariae); test: Phaedon cochleariae spray test (PHAECO); type: in vivo; conditions: Chinese cabbage leaf disks; application rate 500 g/ha; after 7 days
Procedure: Phaedon cochleariae—Spray Test (PHAECO)
(§1) Solvent: 78.0 parts by weight of acetone
(§2) • 1.5 parts by weight of dimethylformamide Emulsifier: alkylaryl polyglycol ether
(§3) To produce a suitable preparation of active compound, 1 part by weight of active compound is dissolved using the stated parts by weight of solvent and made up with water containing an emulsifier concentration of 1000 ppm until the desired concentration is attained. To produce further test concentrations, the preparation is diluted with emulsifier-containing water.
After 7 days, the efficacy in % is determined. 100% means that all the beetle larvae have been killed; 0% means that no beetle larvae have been killed.

[3] = tested on: greenhouse red spider mite (Tetranychus urticae); test: Tetranychus urticae spray test, OP-resistant (TETRUR), bean leaf disks; type: in vivo; conditions: bean leaf disks, application rate 500 g/ha, after 6 days; for pest or weed control at 500 g/ha: Tetranychus urticae, foliar, 144 h, read-out: efficacy in %
How it was run: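 Efficacy (% mites killed) read 6 days after spraying infested Phaseolus vulgaris leaf disks. Compound preparation: acetone and dimethylformamide solvent, made up in water with 1000 ppm alkylaryl polyglycol ether emulsifier; OP-resistant mite strain, all life stages.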

[4] = log P determination by HPLC on reversed-phase columns (C 18), analogously to OECD Guideline 117; type: physicochemical; conditions: for logP (HCOOH): LC-MS in the acidic range, pH 2.7, 0.1% aqueous formic acid / acetonitrile; for logP (HCOOH) / logP (neutral): HPLC reversed-phase C 18; for logP (neutral): LC-MS in the neutral range, pH 7.8, 0.001 molar aqueous ammonium hydrogencarbonate / acetonitrile; for chromatographic logP: reversed-phase C18 HPLC column
How it was run: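 Reversed-phase C18 HPLC per OECD 117 with LC-MS detection and a linear 10→95% acetonitrile gradient. Acidic log P run at pH 2.7 with 0.1% formic acid in both eluents. Neutral log P run at pH 7.8 with 0.001 M aqueous ammonium hydrogencarbonate.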

[5] = tested on: cattle ticks (Boophilus microplus); test: Boophilus microplus injection test (BOOPMI inj); type: in vivo; conditions: injection into the abdomen; application rate 20 μg/animal; assessed after 7 days
Procedure: Boophilus microplus—Injection Test (BOOPMI inj)
Solvent: dimethyl sulfoxide
To produce a suitable preparation of active compound, 10 mg of active compound are mixed with 0.5 ml of solvent and the concentrate is diluted with solvent to the desired concentration.
1 μl of the active compound solution is injected into the abdomen of 5 engorged adult female cattle ticks (Boophilus microplus). The animals are transferred into dishes and kept in a climate-controlled room.
Efficacy is assessed after 7 days by laying of fertile eggs. Eggs which are not visibly fertile are stored in a climate-controlled cabinet until the larvae hatch after about 42 days. An efficacy of 100% means that none of the ticks has laid any fertile eggs; 0% means that all the eggs are fertile.

[6] = tested on: caterpillars of the armyworm (Spodoptera frugiperda); test: Spodoptera frugiperda spray test (SPODFR); type: in vivo; conditions: maize leaf disks; application rate 500 g/ha; after 7 days
Procedure: Spodoptera frugiperda—Spray Test (SPODFR)
as §1, §2, §3
Leaf disks of maize (Zea mays) are sprayed with an active compound preparation of the desired concentration and, after drying, populated with caterpillars of the armyworm (Spodoptera frugiperda).
After 7 days, the efficacy in % is determined. 100% means that all the caterpillars have been killed; 0% means that no caterpillars have been killed.

[7] = acidic range, pH 2.7, 0.1% aqueous formic acid and acetonitrile, read-out: log P[a] / log P(HCOOH)
[8] = neutral range, pH 7.8, 0.001 molar aqueous ammonium hydrogencarbonate and acetonitrile, read-out: log P[b] / log P(neutral)

Compound | nematicidal efficacy in % (formation of galls) [1] [%] | efficacy in % [2] [%] | efficacy in % [3] [%] | logP (HCOOH) [4] | logP (neutral) [4] | efficacy (laying of fertile eggs) [5] [%] | pest or weed control at 500 g/ha [3] [%] | chromatographic logP [4, 7] | chromatographic logP [4, 8] | efficacy in % [6] [%]
Cc1ccc(-n2c(=O)n(C)c(=O)n2CC2CC2)cc1SCC(F)(F)F [Example 52] | 100 | 100 | 100 | 3.34 | 3.29 |  |  |  |  | 
Cc1cc(F)c(N2CC(=O)N(C3CC3)C2=O)cc1SCC(F)(F)F [Example 210] | 90 |  | 100 | 2.91 |  | 100 |  |  |  | 
Cc1ccc(-n2c(=O)n(C)c(=O)n2-c2ccc(C)c([S+]([O-])CC(F)(F)F)c2)cc1SCC(F)(F)F (stereo not drawn) [Example 84] |  | 100 |  | 3.46 | 3.38 |  |  |  |  | 
Cc1cc(C)c([S+]([O-])CC(F)(F)F)cc1-n1c(=O)n(C2CC2)c(=O)n1C (stereo not drawn) [Example 47] |  |  | 90 | 1.98 | 1.93 | 100 |  |  |  | 
Cc1cc(F)c(N2C(=O)C(=O)N(CC(F)(F)F)C2=S)cc1[S+]([O-])CC(F)(F)F (stereo not drawn) [Example 190] |  | 100 | 90 | 3.03 |  |  |  |  |  | 
Cc1cc(F)c(N2C(=O)CSC2=NCC(F)(F)F)cc1[S+]([O-])CC(F)(F)F (stereo not drawn) [Example 13, 3-{2-Fluoro-4-methyl-5-[(2,2,2-trifluoroethyl)sulfinyl]phenyl}-2-[(2,2,2-trifluoroethyl)imino]-1,3-thiazolidin-4-one] | 90 |  |  |  |  | 100 | 90 | 2.7 | 2.64 | 
Cc1cc(F)c(N2CCOC2=O)cc1SCC(F)(F)F [Example 104, 3-[2-Fluoro-4-methyl-5-(2,2,2-trifluoroethylsulfanyl)phenyl]oxazolidin-2-one] |  |  |  |  |  | 100 | 100 | 2.66 |  | 
Cc1ccc(-n2c(=O)n(C)c(=O)n2Cc2ccccc2Cl)cc1SCC(F)(F)F [Example 60] |  | 83 |  | 3.80 | 3.75 |  |  |  |  | 
Cc1cc(F)c(N2CC(=O)N(C3CC3)C2=O)cc1[S+]([O-])CC(F)(F)F (stereo not drawn) [Example 209] | 90 |  | 100 | 1.92 |  | 100 |  |  |  | 
C=CCn1c(=O)n(C2CC2)c(=O)n1-c1ccc(C)c(SCC(F)(F)F)c1 [Example 48] |  |  | 100 | 3.37 | 3.31 | 80 |  |  |  | 
Cc1cc(F)c(-n2[nH]c(=O)n(-c3cccc(Cl)c3)c2=O)cc1SCC(F)(F)F [Example 157] |  |  |  | 3.31 | 1.33 |  |  |  |  | 100
Cc1ccc(-n2c(=O)n(C3CC3)c(=O)n2C)cc1[S+]([O-])CC(F)(F)F (stereo not drawn) [Example 37] | 100 |  | 100 | 1.89 | 1.87 | 100 |  |  |  | 
Cc1cc(F)c(N2C(=O)CSC2=NCC(C)C)cc1SCC(F)(F)F [Example 115] |  |  | 100 | 4.33 | 4.31 | 100 |  |  |  | 
Cc1cc(F)c(N2C(=O)C(=O)N(C3CCCCC3)C2=O)cc1[S+]([O-])CC(F)(F)F (stereo not drawn) [Example 186, 1-Cyclohexyl-3-{2-fluoro-4-methyl-5-[(2,2,2-trifluoroethyl)sulfinyl]phenyl}imidazolidin-2,4,5-trion] |  | 100 |  |  |  |  | 100 | 3.36 | 3.33 | 
Cc1cc(F)c(-n2c(=O)n(C3CC3)c(=O)n2C)cc1SCC(F)(F)F [Example 35] | 100 |  | 100 | 2.83 | 2.81 | 100 |  |  |  | 
Cc1cc(F)c(-n2c(=O)n(C3CC3)c(=O)n2C)cc1[S+]([O-])CC(F)(F)F (stereo not drawn) [Example 34] | 90 |  | 100 | 1.91 | 1.88 | 100 |  |  |  | 
Cc1cc(F)c(N2CC(=O)N(C)C2=O)cc1SCC(F)(F)F [Example 211] |  | 83 | 100 | 2.66 |  | 100 |  |  |  | 
Cc1ccc(-n2c(=O)n(C)c(=O)n2Cc2ccccc2)cc1SCC(F)(F)F [Example 57] |  | 100 |  | 3.62 | 3.56 |  |  |  |  | 
Cc1cc(F)c(N2CC(=O)N(C)C2=O)cc1[S+]([O-])CC(F)(F)F (stereo not drawn) [Example 208] | 90 |  | 100 | 1.68 |  | 100 |  |  |  | 
Cc1cc(F)c(N2C(=O)C(=O)N(C3CCCCC3)C2=O)cc1SCC(F)(F)F [Example 185, 1-Cyclohexyl-3-{2-fluoro-4-methyl-5-[(2,2,2-trifluoroethyl)sulfanyl]phenyl}imidazolidine-2,4,5-trione] |  | 100 |  |  |  |  | 90 | 4.32 | 4.27 | 
Cn1c(=O)n(C2CC2)c(=O)n1-c1ccc(C(F)(F)F)c([S+]([O-])CC(F)(F)F)c1 (stereo not drawn) [Example 54] | 90 |  | 100 | 2.63 | 2.58 | 100 |  |  |  | 
Cc1cc(F)c(-n2[nH]c(=O)n(C3CC3)c2=O)cc1SCC(F)(F)F [Example 207] |  |  | 90 | 1.57 | −0.23 |  |  |  |  | 83
Cc1cc(F)c(N2C(=O)C3(CCC3)C(=O)N2C)cc1SCC(F)(F)F [Example 179] | 90 |  | 100 | 3.00 | 2.96 |  |  |  |  | 
Cc1cc(F)c(N2CCN(C)C2=O)cc1SCC(F)(F)F [Example 198] |  | 83 | 100 | 2.79 | 2.75 |  |  |  |  | 
